Measurements reported in ChEMBL document CHEMBL1687870, “Antimicrobial isopropenyl-dihydrofuranoisoflavones from Crotalaria lachnophora” (2011).
The source made the active and inactive calls. No cut-off for these calls is given here.

Legend:
Pseudomonas aeruginosa = assay: Antimicrobial activity against Pseudomonas aeruginosa DSM 1128 at 1 ug/ul after 24 hrs by disk diffusion method; type: functional
Candida albicans = assay: Antifungal activity against Candida albicans DSM 1386 after 24 hrs by disk diffusion method; type: functional, organism-based
Escherichia coli = assay: Antimicrobial activity against Escherichia coli DSM 682 after 24 hrs by disk diffusion method; type: functional
Aspergillus niger = assay: Antifungal activity against Aspergillus niger DSM 1988 after 48 hrs by disk diffusion method; type: functional, organism-based
Klebsiella pneumoniae = assay: Antimicrobial activity against Klebsiella pneumoniae DSM 681 at 1 ug/ul after 24 hrs by disk diffusion method; type: functional
Staphylococcus aureus = assay: Antimicrobial activity against Staphylococcus aureus DSM 799 at 1 ug/ul after 24 hrs by disk diffusion method; type: functional

Compound | Activity (Pseudomonas aeruginosa) | Activity (Candida albicans) | diameter of the inhibition zone (DIZ) (Escherichia coli) [mm] | Activity (Aspergillus niger) | diameter of the inhibition zone (DIZ) (Klebsiella pneumoniae) [mm] | Activity (Staphylococcus aureus) | inhibition zone (IZ) (Pseudomonas aeruginosa) [mm] | inhibition zone (IZ) (Escherichia coli) [mm] | inhibition zone (IZ) (Klebsiella pneumoniae) [mm] | inhibition zone (IZ) (Staphylococcus aureus) [mm] | diameter of the inhibition zone (DIZ) (Pseudomonas aeruginosa) [mm] | diameter of the inhibition zone (DIZ) (Staphylococcus aureus) [mm]
C[C@@H]1O[C@@H](Oc2cc(O)c3c(=O)cc(-c4ccc(O)c(O)c4)oc3c2)[C@H](O)[C@H](O)[C@H]1O | inactive | inactive | 10.7 | inactive | 7.7 | inactive |  |  |  |  |  | 
CN[C@@H]1[C@H](O[C@H]2[C@H](O[C@H]3[C@H](O)[C@@H](O)[C@H](N=C(N)N)[C@@H](O)[C@@H]3N=C(N)N)O[C@@H](C)[C@]2(O)C=O)O[C@@H](CO)[C@H](O)[C@H]1O [STREPTOMYCIN] | inactive |  | 19.3 |  | 21.3 | inactive |  |  |  |  |  | 
COc1cc(O)c2c(=O)c(-c3ccc(O)cc3O)coc2c1 [CAJANIN] | inactive | inactive | 7.3 | inactive | 9.7 | inactive |  |  |  |  |  | 
O=c1c(-c2ccc(O)cc2O)coc2cc(O)cc(O)c12 | inactive | inactive | 7 | inactive | 7 | inactive |  |  |  |  |  | 
COc1cc(O)c2c(c1)OC[C@H](c1ccc(O)cc1OC)C2=O [CAJANOL] | inactive | inactive | 7.3 | inactive | 9.3 | inactive |  |  |  |  |  | 
C=C(C)C1Cc2c(O)cc3occ(-c4ccc(O)cc4O)c(=O)c3c2O1 (racemic) | inactive | inactive | 8.3 | inactive | 7 | inactive |  |  |  |  |  | 
C=C(C)[C@H]1Cc2c(cc3occ(-c4ccc(O)cc4)c(=O)c3c2O)O1 [LICOAGROISOFLAVONE] | inactive | inactive | 7.3 | inactive | 9.3 | inactive |  |  |  |  |  | 
COc1cc2occ(-c3ccc(O)cc3)c(=O)c2c(O)c1OC [7-O-METHYLTECTORIGENIN] | inactive | inactive | 9.3 | inactive | 7 | inactive |  |  |  |  |  | 
CC1(C)S[C@@H]2[C@H](NC(=O)[C@H](N)c3ccccc3)C(=O)N2[C@H]1C(=O)O [AMPICILLIN] | inactive |  | 24.3 |  | 11.7 | inactive |  |  |  |  |  | 
GENTAMICIN |  |  |  |  |  |  | 20.3 | 16.3 | 14.3 | 15.3 |  | 
COc1cc(-c2coc3cc(O)cc(O)c3c2=O)ccc1O [3'-O-METHYLOROBOL] | inactive | inactive | 7 | inactive | 8.3 | inactive |  |  |  |  |  | 
C=C(C)C1Cc2c(cc3oc4oc5cc(O)ccc5c4c(=O)c3c2O)O1 (stereo unspecified) [LACHNOISOFLAVONE B] | inactive | inactive | 7 | inactive | 7.3 | inactive |  |  |  |  |  | 
COc1cc(O)c2c(=O)c(-c3ccc(O)cc3)coc2c1 [PRUNETIN] | inactive | inactive | 7.3 | inactive | 9.3 | inactive |  |  |  |  |  | 
CN(C)[C@@H]1C(O)=C(C(N)=O)C(=O)[C@@]2(O)C(O)=C3C(=O)c4c(O)cccc4[C@@](C)(O)[C@H]3C[C@@H]12 [TETRACYCLINE] |  |  | 22.3 |  | 26.3 |  |  |  |  |  | 17.7 | 20.7
